From patent publication US20110237665A1, “Agrochemical Composition Comprising Pesticide and UV Absorber” (BASF SE, priority 2008, published 2011)
Values joined by “and” are separate entries in the source; they are usually repeats but may differ in a detail not shown here. Equal values may be shown once.

Test: Determination of the surface tension of the UV absorbers
Format: physicochemical
Conditions: 25° C.; UV absorber concentrations from about 1 mg/l to 5,000 mg/l; water to air
Protocol: The surface tension (ST) of the UV absorbers was determined at 25° C. at concentrations of the UV absorber of from about 1 mg/l to 5,000 mg/l. The ST of water to air is, for comparison, 72.4 mN/m, the ST of commercial surfactants is about 30-35 mN/m.

Compound	ST [mN/m] (surface tension)
COCCOCCOCCOCCOCCOCCOCCOC(=O)C(C#N)=C(c1ccccc1)c1ccccc1 [Example 2A, 2-cyano-3,3-diphenyl-acrylic acid [Pluriol A350E] ester]	43.1 mN/m
COCCOCCOCCOCCOCCOCCOCCOC(=O)COc1ccc(C(=O)c2ccccc2)c(O)c1 [Example 3B, (4-benzoyl-3-hydroxy-phenoxy)-acetic acid [Pluriol A350E] ester]	45.7 mN/m
2-cyano-3,3-diphenylacrylic acid [EO-tridecanol]ester [Example 2D]	33.9 mN/m

Test: Light exposure of dried metaflumizone formulation with UV absorber (Atlas Suntest, seven days), residual content by UPLC
Format: physicochemical
Conditions: formulation by method a) (wet grinding, subsequent addition of UV absorber); 100 g/l metaflumizone, 40 g/l UV absorber; exposed to light seven days; unexposed blank = 100%
Protocol: A formulation comprising 100 g/l of metaflumizone and 40 g/l of UV absorber was prepared by two different methods: a) Wet grinding with subsequent addition of UV absorber as in Example 9. b) Wet grinding with UV absorber as in Example 8. About 20 mg of the mixture prepared in this way were applied to a microscope slide, allowed to dry on for 30 minutes and exposed to light continuously for seven days (Atlas Suntest CRT plus, “Outdoor” setting, exposure to light corresponds to the same spectrum and intensity as normal sunlight at midday in summer). After the exposure time, the samples were dissolved in dimethylsulfoxide. […] For comparison, a sample without UV absorber was also allowed to run (reference) in each exposure series. Evaluation: 2 samples were dissolved again as blank samples immediately after the drying on, without exposure to light, and the content of metaflumizone was determined. The resulting mean was set at 100% and the remaining samples were standardized against this.

Compound	Residual content of metaflumizone (%)
COCCOCCOCCOCCOCCOCCOCCOC(=O)C(C#N)=C(c1ccccc1)c1ccccc1 [Example 2A, 2-cyano-3,3-diphenyl-acrylic acid [Pluriol A350E] ester]	87.1%
p-Aminobenzoic acid ethoxylate [Uvinul P25, reference compound]	53.3%
2-cyano-3,3-diphenyl-acrylic acid [Pluriol A500E] ester [Example 2B]	76.7%
COCCOCCOCCOCCOC(=O)C=Cc1ccccc1 [Example 6B, cinnamic acid 3,6,9,12-tetraoxatridecyl ester]	66.5%
2,4,6-trianilino-p-(carboxy-[Pluriol A500E]-yl)-1,3,5-triazine [Example 4B]	77.5%
COCCOCCOCCOCCOCCOCCOCCOC(=O)COc1ccc(C(=O)c2ccccc2)c(O)c1 [Example 3B, (4-benzoyl-3-hydroxy-phenoxy)-acetic acid [Pluriol A350E] ester]	85.9% and 83.2%
3,6,9,12-tetraoxatridecylcinnamic acid amide [Example 6A]	74.7%

Same assay, conditions: formulation by method b) (wet grinding with UV absorber); 100 g/l metaflumizone, 40 g/l UV absorber; exposed to light seven days; unexposed blank = 100%

Compound	Residual content of metaflumizone (%)
COCCOCCOCCOCCOCCOCCOCCOC(=O)COc1ccc(C(=O)c2ccccc2)c(O)c1 [Example 3B, (4-benzoyl-3-hydroxy-phenoxy)-acetic acid [Pluriol A350E] ester]	82.8%
